In ChEMBL document CHEMBL1147970, “Enzymatic synthesis of arbutin undecylenic acid ester and its inhibitory effect on melanin synthesis” (2007):
Active and inactive are the calls of the source. No cut-off for these calls is given here.

Test system: B16
Assay: Antimelanogenic activity in mouse B16 cells at 0.1 mM after 6 days relative to control
Assay type: functional

SMILES | Activity
C=CCCCCCCCCC(=O)OC[C@H]1O[C@@H](Oc2ccc(O)cc2)[C@H](O)[C@@H](O)[C@@H]1O | 30%
OC[C@H]1O[C@@H](Oc2ccc(O)cc2)[C@H](O)[C@@H](O)[C@@H]1O | inactive
